Measured values: publication PMC7584476, “Safety and efficacy of BAY1436032 in IDH1-mutant AML: phase I study results” (Leukemia, 2020)

System: subjects with mIDH1 advanced AML
Assay: Phase I study: safety and tolerability (TEAE, DLT, MTD, ECG)
Assay type: in vivo
Method: This study was an open-label, nonrandomized, multicenter phase I trial. Subjects were screened at 13 hospital sites in 2 countries (USA and Germany). The study was to consist of dose-escalation followed by dose-expansion. The MTD identified in dose-escalation was to be used in the dose-expansion. If MTD was not reached in dose-escalation, a dose for the expansion would be selected based on available PK, pharmacodynamic, safety, and efficacy data. BAY1436032 was administered twice-daily (BID) in continuous 28-day cycles. In dose-escalation, up to 9 evaluable subjects could be enrolled per cohort, with a minimum of 3 dose-limiting toxicity (DLT)-free evaluable subjects required prior to escalating to the next highest dose. Bayesian dose-DLT modeling was performed to help guide dosing decisions.
DLTs were differentially defined for nonhematopoietic versus hematopoietic toxicities. Nonhematopoietic toxicities of ≥grade 3 occurring during the first cycle of treatment were to be considered DLTs with the following exceptions: (1) Alopecia and nausea controlled by medical management; (2) Tumor lysis syndrome if successfully managed clinically and resolved within 7 days without any end-organ damage; (3) Differentiation syndrome (DS) if successfully managed clinically and resolved within 7 days without any end-organ damage; (4) Asymptomatic ≥grade 3 electrolyte abnormalities not considered clinically significant by the investigator. […] For certain toxicities such as laboratory assessments without a clear clinical correlate, a discussion between the investigator and the sponsor determined whether the adverse event (AE) should be assessed as a DLT.
DLTs identified during the first cycle of treatment were used to guide dose-escalation decisions and to determine the MTD, and if safety issues appeared in subsequent cycles they were also to be considered. Hydroxyurea was permitted during the first cycle if white blood cell (WBC) exceeded 20 × 10^9/L and was also permitted for treatment of DS.
Safety and tolerability were evaluated by analysis of adverse events, physical examinations, vital signs, ECOG performance status, and various laboratory assessments. For safety monitoring, subjects were scheduled for clinic visits every week for the initial three cycles of treatment, after which time visits could be reduced to every-other-week with investigator and sponsor agreement. Cardiac function was assessed with triplicate 12-lead electrocardiograms (ECG) at screening, C1-D1, C1-D2, C1-D15, D1 of every subsequent cycle, and at treatment end. […] AEs are presented by the Medical Dictionary for Regulatory Activities (MedDRA) v21.1.

SMILES: C[C@H]1C[C@@H](n2c(Nc3ccc(OC(F)(F)F)cc3)nc3cc(CCC(=O)O)ccc32)CC(C)(C)C1 [BAY1436032]
- Related TEAE Decreased appetite Grade 1 (300 mg BID, n=7): 1
- Related TEAE Decreased appetite Grade 2 (300 mg BID, n=7): 1
- Related TEAE Diarrhea Grade 2 (300 mg BID, n=7): 0
- Related TEAE Differentiation syndrome Grade 2 (300 mg BID, n=7): 0
- Related TEAE Differentiation syndrome Grade 3 (300 mg BID, n=7): 0
- Related TEAE Dyspnea Grade 1 (300 mg BID, n=7): 1
- Related TEAE Dyspnea Grade 2 (300 mg BID, n=7): 1
- Related TEAE Fatigue Grade 1 (300 mg BID, n=7): 0
- Related TEAE Fatigue Grade 2 (300 mg BID, n=7): 1
- Related TEAE Fatigue Grade 3 (300 mg BID, n=7): 0
- Related TEAE Hypomagnesaemia Grade 1 (300 mg BID, n=7): 1
- Related TEAE Nausea Grade 1 (300 mg BID, n=7): 1
- Related TEAE Nausea Grade 2 (300 mg BID, n=7): 1
- Related TEAE Sinus tachycardia Grade 1 (300 mg BID, n=7): 1
- Related TEAE Vomiting Grade 1 (300 mg BID, n=7): 2
- TEAE Abdominal pain upper Grade 1 (300 mg BID, n=7): 0
- TEAE Abdominal pain upper Grade 2 (300 mg BID, n=7): 0
- TEAE Acute kidney injury Grade 1 (300 mg BID, n=7): 1
- TEAE Acute kidney injury Grade 2 (300 mg BID, n=7): 1
- TEAE Acute kidney injury Grade 3 (300 mg BID, n=7): 0
- TEAE Anaemia Grade 3 (300 mg BID, n=7): 0
- TEAE Anaemia Grade 4 (300 mg BID, n=7): 1
- TEAE Anxiety Grade 1 (300 mg BID, n=7): 1
- TEAE Anxiety Grade 2 (300 mg BID, n=7): 0
- TEAE Arthralgia Grade 1 (300 mg BID, n=7): 0
- TEAE Arthralgia Grade 2 (300 mg BID, n=7): 0
- TEAE Constipation Grade 1 (300 mg BID, n=7): 0
- TEAE Constipation Grade 2 (300 mg BID, n=7): 1
- TEAE Contusion Grade 1 (300 mg BID, n=7): 1
- TEAE Contusion Grade 2 (300 mg BID, n=7): 0
- TEAE Cough Grade 1 (300 mg BID, n=7): 2
- TEAE Cough Grade 2 (300 mg BID, n=7): 1
- TEAE Decreased appetite Grade 1 (300 mg BID, n=7): 3
- TEAE Decreased appetite Grade 2 (300 mg BID, n=7): 1
- TEAE Decreased appetite Grade 3 (300 mg BID, n=7): 0
- TEAE Diarrhea Grade 1 (300 mg BID, n=7): 4
- TEAE Diarrhea Grade 2 (300 mg BID, n=7): 0
- TEAE Dry skin Grade 1 (300 mg BID, n=7): 2
- TEAE Dyspnoea Grade 1 (300 mg BID, n=7): 2
- TEAE Dyspnoea Grade 2 (300 mg BID, n=7): 1
- TEAE Dyspnoea Grade 3 (300 mg BID, n=7): 2
- TEAE Epistaxis Grade 1 (300 mg BID, n=7): 0
- TEAE Epistaxis Grade 2 (300 mg BID, n=7): 0
- TEAE Epistaxis Grade 3 (300 mg BID, n=7): 0
- TEAE Fall Grade 1 (300 mg BID, n=7): 0
- TEAE Fatigue Grade 1 (300 mg BID, n=7): 2
- TEAE Fatigue Grade 2 (300 mg BID, n=7): 1
- TEAE Fatigue Grade 3 (300 mg BID, n=7): 1
- TEAE Febrile neutropenia Grade 3 (300 mg BID, n=7): 2
- TEAE General physical health deterioration Grade 3 (300 mg BID, n=7): 0
- TEAE General physical health deterioration Grade 5 (300 mg BID, n=7): 0
- TEAE Gingivitis Grade 1 (300 mg BID, n=7): 2
- TEAE Haematuria Grade 1 (300 mg BID, n=7): 1
- TEAE Haematuria Grade 2 (300 mg BID, n=7): 0
- TEAE Haematuria Grade 3 (300 mg BID, n=7): 0
- TEAE Headache Grade 1 (300 mg BID, n=7): 1
- TEAE Headache Grade 2 (300 mg BID, n=7): 2
- TEAE Headache Grade 3 (300 mg BID, n=7): 0
- TEAE Hyperkalaemia Grade 1 (300 mg BID, n=7): 1
- TEAE Hyperkalaemia Grade 4 (300 mg BID, n=7): 0
- TEAE Hypertension Grade 2 (300 mg BID, n=7): 0
- TEAE Hypertension Grade 3 (300 mg BID, n=7): 0
- TEAE Hyperuricaemia Grade 1 (300 mg BID, n=7): 0
- TEAE Hyperuricaemia Grade 3 (300 mg BID, n=7): 0
- TEAE Hypokalaemia Grade 1 (300 mg BID, n=7): 2
- TEAE Hypokalaemia Grade 2 (300 mg BID, n=7): 0
- TEAE Hypokalaemia Grade 3 (300 mg BID, n=7): 1
- TEAE Hyponatraemia Grade 1 (300 mg BID, n=7): 2
- TEAE Hyponatraemia Grade 3 (300 mg BID, n=7): 0
- TEAE Hypophosphataemia Grade 1 (300 mg BID, n=7): 0
- TEAE Hypophosphataemia Grade 2 (300 mg BID, n=7): 1
- TEAE Leukocytosis Grade 2 (300 mg BID, n=7): 1
- TEAE Leukocytosis Grade 3 (300 mg BID, n=7): 1
- TEAE Lung infection Grade 3 (300 mg BID, n=7): 1
- TEAE Lung infection Grade 5 (300 mg BID, n=7): 1
- TEAE Nausea Grade 1 (300 mg BID, n=7): 1
- TEAE Nausea Grade 2 (300 mg BID, n=7): 1
- TEAE Nausea Grade 3 (300 mg BID, n=7): 0
- TEAE Oedema peripheral Grade 1 (300 mg BID, n=7): 3
- TEAE Oedema peripheral Grade 3 (300 mg BID, n=7): 1
- TEAE Pain in extremity Grade 1 (300 mg BID, n=7): 1
- TEAE Pain in extremity Grade 2 (300 mg BID, n=7): 0
- TEAE Pneumonia Grade 1 (300 mg BID, n=7): 0
- TEAE Pneumonia Grade 2 (300 mg BID, n=7): 1
- TEAE Pneumonia Grade 3 (300 mg BID, n=7): 1
- TEAE Pneumonia fungal Grade 2 (300 mg BID, n=7): 0
- TEAE Pneumonia fungal Grade 3 (300 mg BID, n=7): 0
- TEAE Pneumonia fungal Grade 4 (300 mg BID, n=7): 0
- TEAE Productive cough Grade 1 (300 mg BID, n=7): 0
- TEAE Productive cough Grade 2 (300 mg BID, n=7): 0
- TEAE Pyrexia Grade 1 (300 mg BID, n=7): 0
- TEAE Pyrexia Grade 2 (300 mg BID, n=7): 0
- TEAE Pyrexia Grade 3 (300 mg BID, n=7): 0
- TEAE Rash Grade 1 (300 mg BID, n=7): 0
- TEAE Rash Grade 2 (300 mg BID, n=7): 0
- TEAE Sepsis Grade 4 (300 mg BID, n=7): 2
- TEAE Sepsis Grade 5 (300 mg BID, n=7): 1
- TEAE Sinus tachycardia Grade 1 (300 mg BID, n=7): 2
- TEAE Thrombocytopenia Grade 4 (300 mg BID, n=7): 0
- TEAE Vomiting Grade 1 (300 mg BID, n=7): 3
- TEAE Weight decreased Grade 1 (300 mg BID, n=7): 2
- TEAE Weight decreased Grade 2 (300 mg BID, n=7): 0
- TEAE Weight decreased Grade 3 (300 mg BID, n=7): 0
- Related TEAE Decreased appetite Grade 1 (600 mg BID, n=4): 0
- Related TEAE Decreased appetite Grade 2 (600 mg BID, n=4): 0
- Related TEAE Diarrhea Grade 2 (600 mg BID, n=4): 0
- Related TEAE Differentiation syndrome Grade 2 (600 mg BID, n=4): 0
- Related TEAE Differentiation syndrome Grade 3 (600 mg BID, n=4): 0
- Related TEAE Dyspnea Grade 1 (600 mg BID, n=4): 0
- Related TEAE Dyspnea Grade 2 (600 mg BID, n=4): 0
- Related TEAE Fatigue Grade 1 (600 mg BID, n=4): 1
- Related TEAE Fatigue Grade 2 (600 mg BID, n=4): 0
- Related TEAE Fatigue Grade 3 (600 mg BID, n=4): 0
- Related TEAE Hypomagnesaemia Grade 1 (600 mg BID, n=4): 0
- Related TEAE Nausea Grade 1 (600 mg BID, n=4): 1
- Related TEAE Nausea Grade 2 (600 mg BID, n=4): 0
- Related TEAE Sinus tachycardia Grade 1 (600 mg BID, n=4): 0
- Related TEAE Vomiting Grade 1 (600 mg BID, n=4): 1
- TEAE Abdominal pain upper Grade 1 (600 mg BID, n=4): 0
- TEAE Abdominal pain upper Grade 2 (600 mg BID, n=4): 0
- TEAE Acute kidney injury Grade 1 (600 mg BID, n=4): 0
- TEAE Acute kidney injury Grade 2 (600 mg BID, n=4): 0
- TEAE Acute kidney injury Grade 3 (600 mg BID, n=4): 1
- TEAE Anaemia Grade 3 (600 mg BID, n=4): 1
- TEAE Anaemia Grade 4 (600 mg BID, n=4): 0
- TEAE Anxiety Grade 1 (600 mg BID, n=4): 0
- TEAE Anxiety Grade 2 (600 mg BID, n=4): 0
- TEAE Arthralgia Grade 1 (600 mg BID, n=4): 0
- TEAE Arthralgia Grade 2 (600 mg BID, n=4): 0
- TEAE Constipation Grade 1 (600 mg BID, n=4): 0
- TEAE Constipation Grade 2 (600 mg BID, n=4): 0
- TEAE Contusion Grade 1 (600 mg BID, n=4): 0
- TEAE Contusion Grade 2 (600 mg BID, n=4): 0
- TEAE Cough Grade 1 (600 mg BID, n=4): 1
- TEAE Cough Grade 2 (600 mg BID, n=4): 0
